# Values of other authors, collected in patent US20100093659A1, “POLYVALENT BIOCONJUGATES” (GLYKOS FINLAND OY, priority 2006, published 2010).
# System: Helicobacter pylori
# Details: monomeric form
compound,measurement,value
CC(=O)N[C@H]1[C@H]([C@H](O)[C@H](O)CO)O[C@@](O[C@H]2[C@@H](O)[C@@H](CO)O[C@@H](O[C@H]3[C@H](O)[C@@H](O)C(O)O[C@@H]3CO)[C@@H]2O)(C(=O)O)C[C@@H]1O (stereo partly shown) [3′-sialyllactose],concentrations at which adhesion of Helicobacter pylori to gastrointestinal epithelial cells was inhibited,millimolar
